Source: patent US20250275968A1, “INHIBITORS OF TAU PROTEINS” (DEUTSCHES ZENTRUM FÜR NEURODEGENERATIVE ERKRANKUNGEN E.V., priority 2022, published 2025)
Where a name gives a salt, the structure may show the parent alone.

How the values were obtained:
Solubility in water = type: physicochemical; conditions: without cosolvents or counterions
2N4R tau = assay: In vitro seeded aggregation/fibrillization assay of 2N4R tau (ThT fluorescence); type: biochemical; conditions: tau:compound mole ratios 1:3 and 1:10
Method: Aggregation of 2N4R Tau was performed using a previously published co-factor-free aggregation protocol, with a few modifications (Reference: Chakraborty, P. et al. Co-factor-free aggregation of tau into seeding-competent RNA-sequestering amyloid fibrils. Nat. Commun. 12, 4231 (2021)). Aggregation experiments used the Tau protein stock prepared in 25 mM HEPES pH 7.4, 1 mM TCEP. Stocks of compounds were prepared in aggregation buffer (25 mM HEPES, 10 mM KCl, 5 mM MgCl2, pH 7.2) or in DMSO (10 mM compound).
To prepare the Tau fibril seeds by de novo aggregation, 2N4R Tau at a monomer concentration of 25 μM was diluted in aggregation buffer. The working concentration of TCEP in the aggregation mixture was <25 μM after dilution of the stock. To this mixture, Thioflavin T (ThT) was added to a final concentration of 50 μM. A total volume of 100 μL of the Tau-ThT mixture was incubated in a well of a 96-well microplate (Greiner Bio-one), in the presence of two polytetrafluoroethylene beads. The microplate was subjected to a program implemented in a Tecan Spark plate reader that involved incubating at 37° C., with intervals of double orbital shaking and ThT fluorescence emission measurement. The excitation wavelength for ThT was set as 430 nm and the emission wavelength was 485 nm. Details of this plate reader program were published previously (Reference: Chakraborty, P. et al. Co-factor-free aggregation of tau into seeding-competent RNA-sequestering amyloid fibrils. Nat. Commun. 12, 4231 (2021)). […] The fibril-containing mixture collected from the microplate served as a seeding mixture for the subsequent aggregation assays.
Seeded aggregation assays were performed as described above but with 1.0% of the well volume occupied by the seeding mixture sonicated for 1 minute. The assays were performed in the presence and absence of compounds, and working concentrations ranged from 0-250 μM compound.
Analyses of the fluorescence curves were performed using Graphpad PRISM version 8. Fluorescence data were fit to a sigmoid function. The number of hours corresponding to half-maximal ThT Fluorescence™ as well as the span of fluorescence intensity (Span) were determined for each sigmoid curve. Statistically significant differences were determined by one-way ANOVA analysis with Dunnett's multiple comparison test or unpaired t-test.

Row | Structure (SMILES) | solubility in water (Solubility in water) | inhibition of aggregation of tau^wt and tau^3R compared with cysteine-free tau^C291S,C322S (2N4R tau)
1 | C=CC(=O)Nc1cc(Nc2nccc(-c3cn(C)c4ccccc34)n2)c(OC)cc1N(C)CCN(C)C [Osimertinib, N-[2-(2-Dimethylaminoethylmethylamino)-4-methoxy-5-[[4-(1-methylindol-3-yl)pyrimidin-2-yl]amino]phenyl]prop-2-enamide] | poor solubility in water | 
2 | C=CC(=O)Nc1cc(Nc2nccc(-c3cn(C)c4ccccc34)n2)c(OC)cc1N(C)CCN(C)C [Osimertinib mesylate, N-[2-(2-Dimethylaminoethylmethylamino)-4-methoxy-5-[[4-(1-methylindol-3-yl)pyrimidin-2-yl]amino]phenyl]prop-2-enamide Mesylate Salt] |  | more effectively inhibits
